Measured values: patent US20250179047A1, “5-[7-(3,4-DIHYDRO-1H-ISOQUINOLINE-2-CARBONYL)-1,2,3,4 TETRAHYDROISOQUINOLIN-6-YL]-1H-PYRROLE-3-CARBOXAMIDE DERIVATIVES, PHARMACEUTICAL COMPOSITIONS CONTAINING THEM AND THEIR USES AS PRO-APOPTOTIC AGENTS” (LES LABORATOIRES SERVIER, priority 2022, published 2025)

What was measured:
platelets = test: Platelet depletion in SCID mice; type: in vivo; details: 25 mg/kg IV bolus, vs control group; for Platelet loss (%) 6 h: 6 h after dosing; for Platelet loss (%) 24 h: 24 h after dosing
Protocol: (§1) Pharmacokinetic (PK) and platelet toxicity were investigated in SCID mice. Compounds were administered at 25 mg/kg by IV bolus, and formulated in PEG/Ethanol/NaCl 0.9% (40/10/50 v/v/v).
(§2) Blood samples (3 animals/time point and 3 time points/animal) were collected over 24 h after dosing: 0.05 h, 0.5 h, 1 h, 3 h, 6 h and 24 h for PK and 6 h and 24 h for platelets.
(§3) PK samples were analyzed by liquid chromatography using tandem mass spectrometry detection (LC-MS/MS) and platelet count (109/L) was measured using an hematology analyzer. Percentage of platelet loss was calculated at both time points (T+6 h and 24 h) as compared to a control group of 6 animals. PK parameters (Cinf and AUC24, which correspond to the concentration at the end of bolus administration and the area under curve over 24 h, respectively) were also determined using a non-compartmental analysis.

[1] = Pharmacokinetics in SCID mice; type: in vivo; details: 25 mg/kg IV bolus; for PK parameters Cinf: concentration at the end of bolus administration; for AUC: mouse, blood, area under curve over 24 h, read-out: PK parameters AUC24
Protocol: as §1, §2, §3

CYP3A4 = CYP3A4 (Homo sapiens (Human), UniProt P08684); test: CYP3A4 inhibition determination in hepatic human microsomes; type: in vitro ADME; details: LC/MS-MS of specific metabolite
Protocol: The inhibitory potential was determined on CYP3 Å4 enzyme using hepatic human microsomes. A range of concentrations (adapted based on the solubility) of the tested compound were incubated in presence of a substrate having a specific metabolite of CYP3 Å4 enzyme.
Then, the formation of the metabolite was quantified using LC/MS-MS analysis and a curve corresponding to the concentration of the metabolite in function of the concentration of the test compound allowed to the calculation of the IC50 value.

Sequence of CYP3A4 (P08684 whole entry): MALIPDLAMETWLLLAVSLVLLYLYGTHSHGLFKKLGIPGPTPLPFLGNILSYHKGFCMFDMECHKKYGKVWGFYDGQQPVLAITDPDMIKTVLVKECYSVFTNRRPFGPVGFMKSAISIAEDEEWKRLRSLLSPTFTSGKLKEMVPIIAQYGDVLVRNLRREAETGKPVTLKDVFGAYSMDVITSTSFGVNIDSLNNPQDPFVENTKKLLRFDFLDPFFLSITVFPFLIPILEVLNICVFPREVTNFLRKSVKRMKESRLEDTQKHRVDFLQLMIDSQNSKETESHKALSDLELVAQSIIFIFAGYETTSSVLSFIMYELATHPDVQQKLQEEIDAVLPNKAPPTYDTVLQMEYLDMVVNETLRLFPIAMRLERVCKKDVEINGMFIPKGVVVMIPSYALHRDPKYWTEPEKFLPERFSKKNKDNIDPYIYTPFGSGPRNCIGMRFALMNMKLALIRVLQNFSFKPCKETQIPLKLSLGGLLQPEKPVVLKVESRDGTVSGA

Row | SMILES | Platelet loss (%) 6 h (platelets) | Platelet loss (%) 24 h (platelets) | PK parameters Cinf [1] | AUC [1] | IC50 (CYP3A4)
1 | Cc1c(N(C(=O)c2cc(-c3cc4c(cc3C(=O)N3Cc5ccccc5C[C@H]3CN3CCCCC3)CN(C(=O)Cc3ccc(OCCN5CCOCC5)cc3F)CC4)n(C)c2C)c2ccc(O)cc2)cc(C#N)n1C [Example 43, N-(5-cyano-1,2-dimethylpyrrol-3-yl)-5-[2-(2-{2-fluoro-4-[2-(morpholin-4-yl)ethoxy]phenyl}acetyl)-7-{[(3S)-3-(piperidin-1-ylmethyl)-3,4-dihydro-1H-isoquinolin-2-yl]carbonyl}-3,4-dihydro-1H-isoquinolin-6-yl]-N-(4-hydroxyphenyl)-1,2-dimethylpyrrole-3-carboxamide] | 25.3% | 9.2% | 15.4 µM | 16.9 µM·h | 
2 | Cc1c(N(C(=O)c2cc(-c3cc4c(cc3C(=O)N3Cc5ccccc5C[C@H]3C)CN(C(=O)Cc3ccc(N5CCN6CCOC[C@@H]6C5)cc3F)CC4)n(C)c2C)c2ccc(O)cc2)cc(C#N)n1C [Example 45, 5-[2-(2-{4-[(9aS)-octahydropyrazino[2,1-c][1,4]oxazin-8-yl]-2-fluorophenyl}acetyl)-7-[(3R)-3-methyl-1,2,3,4-tetrahydroisoquinoline-2-carbonyl]-1,2,3,4-tetrahydroisoquinolin-6-yl]-N-(5-cyano-1,2-dimethyl-1H-pyrrol-3-yl)-N-(4-hydroxyphenyl)-1,2-dimethyl-1H-pyrrole-3-carboxamide] | 22.0% | 27.6% | 40.8 µM | 34.2 µM·h | 
3 | Cc1c(C(=O)N(c2ccc(O)cc2)c2cc(C#N)n(C(F)F)c2C)cc(-c2cc3c(cc2C(=O)N2Cc4ccccc4C[C@H]2CN2CCCCC2)CN(C(=O)Cc2ccc(OCCN4CCOCC4)cc2F)CC3)n1C [Example 78, N-[5-cyano-1-(difluoromethyl)-2-methylpyrrol-3-yl]-5-[2-(2-{2-fluoro-4-[2-(morpholin-4-yl)ethoxy]phenyl}acetyl)-7-{[(3S)-3-(piperidin-1-ylmethyl)-3,4-dihydro-1H-isoquinolin-2-yl]carbonyl}-3,4-dihydro-1H-isoquinolin-6-yl]-N-(4-hydroxyphenyl)-1,2-dimethylpyrrole-3-carboxamide] |  |  |  |  | > 5 µM

Now from value to compound:

Row | Platelet loss (%) 6 h (platelets) | Platelet loss (%) 24 h (platelets) | PK parameters Cinf [1] | AUC [1] | IC50 (CYP3A4) | SMILES
4 | 58.4% | 30.3% | 21.0 µM | 12 µM·h | 6.2 µM | Cc1c(N(C(=O)c2cc(-c3cc4c(cc3C(=O)N3Cc5ccccc5C[C@H]3C)CN(C(=O)Cc3ccc(OCCN5CCOCC5)cc3)CC4)n(C)c2C)c2ccc(O)cc2)cc(C#N)n1C [Example 21, N-(5-cyano-1,2-dimethyl-1H-pyrrol-3-yl)-N-(4-hydroxyphenyl)-1,2-dimethyl-5-{7-[(3R)-3-methyl-1,2,3,4-tetrahydroisoquinoline-2-carbonyl]-2-(2-{4-[2-(morpholin-4-yl)ethoxy]phenyl}acetyl)-1,2,3,4-tetrahydroisoquinolin-6-yl}-1H-pyrrole-3-carboxamide]
5 | 18.6% | 11.0% | 12.2 µM | 19.5 µM·h |  | Cc1c(N(C(=O)c2cc(-c3cc4c(cc3C(=O)N3Cc5ccccc5C[C@H]3C)CN(C(=O)Cc3ccc(OCCC5CCOCC5)cc3)CC4)n(C)c2C)c2ccc(O)cc2)cc(C#N)n1C [Example 27, N-(5-cyano-1,2-dimethyl-1H-pyrrol-3-yl)-N-(4-hydroxyphenyl)-1,2-dimethyl-5-{7-[(3R)-3-methyl-1,2,3,4-tetrahydroisoquinoline-2-carbonyl]-2-(2-{4-[2-(oxan-4-yl)ethoxy]phenyl}acetyl)-1,2,3,4-tetrahydroisoquinolin-6-yl}-1H-pyrrole-3-carboxamide]
6 | 34.3% | 33.0% | 18.0 µM | 33.7 µM·h |  | COC[C@@H]1Cc2ccccc2CN1C(=O)c1cc2c(cc1-c1cc(C(=O)N(c3ccc(O)cc3)c3cc(C#N)n(C)c3C)c(C)n1C)CCN(C(=O)Cc1ccc(OCCC3CCOCC3)cc1F)C2 [Example 52, N-(5-cyano-1,2-dimethylpyrrol-3-yl)-5-[2-(2-{2-fluoro-4-[2-(oxan-4-yl)ethoxy]phenyl}acetyl)-7-{[(3S)-3-(methoxymethyl)-3,4-dihydro-1H-isoquinolin-2-yl]carbonyl}-3,4-dihydro-1H-isoquinolin-6-yl]-N-(4-hydroxyphenyl)-1,2-dimethylpyrrole-3-carboxamide]
7 | 26.9% | 33.9% | 17.3 µM | 11.4 µM·h |  | Cc1c(N(C(=O)c2cc(-c3cc4c(cc3C(=O)N3Cc5ccccc5C[C@H]3C)CN(C(=O)Cc3ccc(OCCN5CCSCC5)cc3)CC4)n(C)c2C)c2ccc(O)cc2)cc(C#N)n1C [Example 55, N-(5-cyano-1,2-dimethyl-1H-pyrrol-3-yl)-N-(4-hydroxyphenyl)-1,2-dimethyl-5-{7-[(3R)-3-methyl-1,2,3,4-tetrahydroisoquinoline-2-carbonyl]-2-(2-{4-[2-(thiomorpholin-4-yl)ethoxy]phenyl}acetyl)-1,2,3,4-tetrahydroisoquinolin-6-yl}-1H-pyrrole-3-carboxamide]
8 |  |  |  |  | > 5 µM | Cc1c(C(=O)N(c2ccc(O)cc2)c2cc(C#N)n(C(F)F)c2C)cc(-c2cc3c(cc2C(=O)N2Cc4ccccc4C[C@H]2CN2CCCCC2)CN(C(=O)Cc2ccc(OCCN4CCOCC4)cc2)CC3)n1C [Example 77]
